Experimental findings from ChEMBL document CHEMBL1140452, “5'-halogenated analogs of oxymorphindole” (Bioorg Med Chem Lett, 2007) are described below.

pEC50, pKi: −log10 of the molar value. The source made the active and inactive calls. The calls are words filed in the database; no cut-off is given here.

Test [1] has as its target T1, Mu-type opioid receptor (Homo sapiens, UniProt P35372). The test is described as follows: Displacement of [3H]DAMGO from mu opioid receptor.
For test [2], the target named is T2, Delta-type opioid receptor (Homo sapiens, UniProt P41143). The test is described as follows: Displacement of [3H]p-Cl-DPDPE from delta opioid receptor. (Displacement assays read how much labelled ligand stays bound in the presence of the test substance.)
T2 sequence (P41143 whole entry): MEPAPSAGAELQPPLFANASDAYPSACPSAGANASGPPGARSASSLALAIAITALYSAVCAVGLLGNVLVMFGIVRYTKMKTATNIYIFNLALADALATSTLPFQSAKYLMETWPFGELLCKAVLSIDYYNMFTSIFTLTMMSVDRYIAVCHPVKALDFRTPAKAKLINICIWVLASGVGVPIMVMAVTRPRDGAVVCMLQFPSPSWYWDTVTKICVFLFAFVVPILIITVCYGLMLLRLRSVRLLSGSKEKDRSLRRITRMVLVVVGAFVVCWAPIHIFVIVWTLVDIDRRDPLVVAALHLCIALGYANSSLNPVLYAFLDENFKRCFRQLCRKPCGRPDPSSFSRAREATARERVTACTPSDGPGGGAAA
In test [3] the target is Kappa-type opioid receptor (Homo sapiens, UniProt P41145). Nature of the test: Displacement of [3H]U-69593 from cloned kappa opioid receptor.
Chain of Kappa-type opioid receptor (P41145 whole entry): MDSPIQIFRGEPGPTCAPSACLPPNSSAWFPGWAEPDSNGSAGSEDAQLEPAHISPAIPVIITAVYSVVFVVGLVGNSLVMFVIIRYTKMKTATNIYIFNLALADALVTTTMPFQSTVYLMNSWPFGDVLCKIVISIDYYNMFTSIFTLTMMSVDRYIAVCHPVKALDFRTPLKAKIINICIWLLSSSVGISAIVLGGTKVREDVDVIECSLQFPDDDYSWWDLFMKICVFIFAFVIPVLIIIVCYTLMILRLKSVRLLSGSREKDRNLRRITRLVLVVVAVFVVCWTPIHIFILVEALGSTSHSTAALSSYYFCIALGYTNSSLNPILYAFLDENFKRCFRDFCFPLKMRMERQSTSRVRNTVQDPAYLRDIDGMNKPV
The species named for the next test is Homo sapiens. The test is described as follows: Selectivity for delta opioid receptor over mu opioid receptor.
Test [4] deals with Mus musculus. Nature of the test: Antinociceptive effect in mouse at 30 mg/kg by tail flick assay. The format is functional, organism-based. Set-up: dose 30 mg/kg. On the technique in general: Hot-plate and tail-flick tests time the reaction to a heat stimulus.
Test [5] concerns Mus musculus. Nature of the test: Antinociceptive effect in mouse at 30 mg/kg by hot plate assay. The format is functional, organism-based. Also noted: dose 30 mg/kg.
For test [6], the system named is Mus musculus. Nature of the test: Antinociceptive effect in mouse at 30 mg/kg by antiwrithing assay. The format is functional, organism-based. Also noted: dose 30 mg/kg.
Test [7] deals with Mus musculus. The test is described as follows: Antinociceptive effect in mouse at 30 mg/kg by […]. The format is functional, organism-based. Set-up: dose 30 mg/kg.
For test [8], the target named is T1, Mu-type opioid receptor. Nature of the test: Activity at mu opioid receptor assessed as stimulation of [35S]GTP-gamma-S binding. The format is functional. (In general: GTPγS is a poorly hydrolysed GTP analogue; its binding reports G protein activation.)
The target of test [9] is T2, Delta-type opioid receptor. Nature of the test: Activity at delta opioid receptor assessed as stimulation of [35S]GTP-gamma-S binding.

T1 sequence (P35372 whole entry): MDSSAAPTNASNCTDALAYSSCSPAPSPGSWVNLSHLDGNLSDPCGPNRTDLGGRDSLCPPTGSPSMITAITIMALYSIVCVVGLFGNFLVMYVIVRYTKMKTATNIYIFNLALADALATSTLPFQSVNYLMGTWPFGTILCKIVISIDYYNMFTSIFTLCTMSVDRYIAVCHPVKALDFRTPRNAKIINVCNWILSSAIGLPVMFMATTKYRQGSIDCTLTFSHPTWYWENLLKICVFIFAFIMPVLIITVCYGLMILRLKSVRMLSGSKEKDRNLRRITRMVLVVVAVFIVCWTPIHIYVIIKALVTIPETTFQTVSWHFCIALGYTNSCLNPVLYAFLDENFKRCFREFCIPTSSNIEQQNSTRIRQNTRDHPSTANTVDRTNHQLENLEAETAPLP

Consider `CN1CC[C@]23c4c5ccc(O)c4O[C@H]2c2[nH]c4ccc(I)cc4c2C[C@@]3(O)[C@H]1C5`, for which the values for the negative-log Ki (pKi) (at Mu-type opioid receptor [1]; in [2]; in test [3]) were 7.18, 8.42 and 6.80, respectively. The Ratio Ki in the test listed under Homo sapiens came to 17. Also, the result in the test with Mus musculus [4], in the test on Mus musculus [5], in the test on Mus musculus [6] and in the test on Mus musculus [7] was inactive.

As to `CN1CC[C@]23c4c5ccc(O)c4O[C@H]2c2[nH]c4ccccc4c2C[C@@]3(O)[C@H]1C5` [OXYMORPHINDOLE], the pKi (usually the Ki on a negative log10 scale, so that one unit is a factor of ten) is 6.98 at Mu-type opioid receptor [1] and 9.05 in [2]. For the same compound, in the test listed under Homo sapiens, the Ratio Ki was 115. In addition, the result with Mus musculus [4], with Mus musculus [5], in the test with Mus musculus [6] and in the test with Mus musculus [7] was inactive.

Turning to `CN1CC[C@]23c4c5ccc(O)c4O[C@H]2c2[nH]c4ccc(Br)cc4c2C[C@@]3(O)[C@H]1C5`, the figures for the pKi (at Mu-type opioid receptor [1]; in test [2]; in [3]) were 7.15, 8.07 and 6.60, respectively. The Ratio Ki in the test listed under Homo sapiens was 8. For the same compound, the result in the test on Mus musculus [4], with Mus musculus [5], with Mus musculus [6] and in the test on Mus musculus [7] was inactive.

Take `CN1CC[C@]23c4c5ccc(O)c4O[C@H]2c2[nH]c4ccc(F)cc4c2C[C@@]3(O)[C@H]1C5`: the negative-log Ki (pKi) on Mu-type opioid receptor [1] was 7.68; in test [2], 8.64; in [3], 6.51. Besides, the Ratio Ki in the test filed under Homo sapiens was determined as 9. In addition, the result in the test with Mus musculus [4], with Mus musculus [5], in the test with Mus musculus [6] and in the test on Mus musculus [7] was inactive. Further, the Activity on Mu-type opioid receptor [8] is 34%. Moreover, the pEC50 (usually −log10 of the EC50, conventionally taken in molar units) on Mu-type opioid receptor [8] is 5.97; in [9] it was 7.80.

With `CN1CC[C@]23c4c5ccc(O)c4O[C@H]2c2[nH]c4ccc(Cl)cc4c2C[C@@]3(O)[C@H]1C5`, the negative logarithm of the Ki (pKi) at Mu-type opioid receptor [1] is 7.33; in test [2], 8.29; in [3] it was 6.44. Moreover, the Ratio Ki in the test filed under Homo sapiens was 9. Further, the result with Mus musculus [4], in the test on Mus musculus [5], in the test on Mus musculus [6] and with Mus musculus [7] was inactive.
